According to EP2002836B1, “Cyclocondensed azaindoles active as kinase inhibitors” (Nerviano Medical Sciences S.r.l., priority 2007, dated 2008):

Key:
AKT2 = molecular target: T1, AKT2 (Homo sapiens, UniProt P31751); test: Biochemical assay for inhibitors of AKT2 kinase activity (33P trans-phosphorylation, Dowex resin); details: 10 nM enzyme, 396 microM ATP, 8.5 microM peptide substrate; read-out: AKT2 IC50 (µM) Biochem assay
T1 construct: made in house
Method: The N-terminal GST fusion proteins used for the assays were prepared according to the methods described in Kumar, C. C. Biochem. Biophys. ACTA 2001, 1526, 257-268, and in Alessi, D. R.. Biochem. J. 1998 331, 299-308.
The in vitro kinase inhibition assay was conducted in the same way as described for AKT1. The kinase assay was run with a final enzyme concentration of 10 nM, in the presence of 396 microM ATP, 0.88 nM ^33P-γ-ATP and 8.5 microM substrate, a carboxy-terminally biotinylated peptide of the following sequence: ARKRERTYSFGHHA-biotin. The peptide was obtained in batches of >95% peptide purity from PRIMM labs Inc. (Boston MA, USA).

PKAα = molecular target: T2, PKAα (Homo sapiens, UniProt P17612); test: FABS-NMR screening (3-FABS, 19F-labelled AKTide-like substrate) on PKA; format: biochemical; details: 25 nM protein, 30 µM substrate, 150 µM ATP
T2 construct: polyHis; made in house; host or cells: E. coli
Method: The biochemical functional NMR screening on the proteins kinase AKT-1 and PKA was performed using the 3-FABS (3-Fluorine Atoms for Biochemical Screening) technique developed by C. Dalvit and the NMR group in house (C. Dalvit et al 2003 J. Am. Chem. Soc. 125 (47): 14620).
The method require the use of a ^19F-labelled substrate. The same commercial peptide was used as substrate in both enzymatic reaction: the Tyr just before the phosphorilation site in the AKTide peptide was mutated in a 3-tryfluormethyl-Phe by Bachem.
The AKTide like peptide sequence is reported below: • H-Ala-Arg-Lys-Arg-Glu-Arg-Ala-F(3-CF3)-Ser-Phe-Gly-His-His-Ala-OH
The active human Ser-Thr protein kinase AKT-1 Full Length was expressed as GST fusion protein in insect cells and then the GST was cleaved with PreScission protease. The active cycled AMP-dependent human protein kinase A PKA was expressed as polyHis-tag protein in E.Coli and purified by affinity column.
Reactions were performed in an end point format in eppendorf of 0.5 ml using the buffer solution 50mM Tris, pH 7.5, 5mM MgCl2, 1mM DTT, 8% D2O and 0.001% Triton-X-100; the final volume was of 560 µl. The substrate and protein concentration were of 30 µM and 25 nM respectively. The reactions were performed using an ATP concentration of about 9 times its KM: 150 µM in the test with PKA and 1.5 mM in the AKT-1 experiments. A sample in absence of inhibitor was run as control in order to follow the ongoing of the reaction and it represents the 0% inhibition. Different concentration compound stock solutions in DMSOd6 were made in order to add the same amount of DMSOd6 in each sample: usually the compounds stock were of 0.03, 0.2, 2, and 10 mM. 0.56 µl of these solution was added in each sample in order to reach the final compounds concentration of 30 nM, 200 nM 2 µM and 10 µM respectively; 0.56 µl of DMSOd6 was added in the control too. The reactions were quenched after about 100/120 minutes with 10 mM of Staurosporine (Sigma code:S4400), transferred into the 5 mm NMR tube (Cortec code: NE-MP5-8) and put onto the Sample Management System (SMS) autosampler for automatic data collection. The spectra were recorded using the Varian Inova 600 MHz NMR spectrometer operating at a ^19F Larmor frequency of 564 MHz and using a 5mm probe with the inner coil tuned to ^19F and the outer coil tuned to H. The data were recorded without proton decoupling with a spectral width of 12000 Hz, an acquisition time of 0.8s and a relaxation delay of 2.8s. Chemical shifts are referenced to trifluoroacetic acid.
IC50 determination was achieved by measuring the substrate signal as a function of the inhibitor concentration using one of the formulas below. […] IC50 data were analyzed with non-linear least squares methods in the Origin 5.0 software package.

[1] = system: S6 ribosomal protein phosphorylation in MCF7; test: Inhibition of AKT induced S6 ribosomal protein phosphorylation in MCF7 (immunofluorescence, ArrayScan); format: cell-based; details: Homo sapiens, MCF-7 cells, 4 hour treatment at 37°C, anti-phospho-S6 (Ser 235/236), read-out: S6 phosphorylation (Ser235/236) in MCF7-cell IC50
Method: MCF-7 cells (ATCC# HTB-22) were seeded in 96-well poly-lysine coated clear- and flat-bottomed black plates (Matrix Technologies Inc., Hudson, NH, USA), in E-MEM medium (MEM+ Earle's BSS + 2 mM glutamine + 0.1 mM non-essential amino acids) containing 10% of FCS at a density of 7000 cells/well, and incubated overnight at 37°C, 5% CO2, 100% relative humidity. After this incubation, cells were treated with increasing compound doses for 4 hour at 37°C. Afterwards, cells were fixed with PBS/3.7% paraformaldehyde for 15 min at room temperature, wash twice with 200 µl/well D-PBS and permeabilize with a D-PBS solution containing 0.1% Triton X-100 (Sigma-Aldrich, St. Louis, MO, USA) and 0.1 % powder Milk for 15 minutes (staining solution). […] Fluorescence images in the DAPI and Cy5™ channels were automatically acquired, stored and analysed using a Cellomics ArrayScan™ IV instrument (Cellomics, Pittsburgh, USA); the Cellomics Cytotoxicity Algorithm was used to quantify cytoplasmic fluorescence associated with phospho-S6 (Cy5™ signal parameter: "Mean Lyso Mass-pH") for each cell in 10 fields/well, and eventually expressed as a mean population value. […]

T1 sequence (P31751 whole entry, species assumed): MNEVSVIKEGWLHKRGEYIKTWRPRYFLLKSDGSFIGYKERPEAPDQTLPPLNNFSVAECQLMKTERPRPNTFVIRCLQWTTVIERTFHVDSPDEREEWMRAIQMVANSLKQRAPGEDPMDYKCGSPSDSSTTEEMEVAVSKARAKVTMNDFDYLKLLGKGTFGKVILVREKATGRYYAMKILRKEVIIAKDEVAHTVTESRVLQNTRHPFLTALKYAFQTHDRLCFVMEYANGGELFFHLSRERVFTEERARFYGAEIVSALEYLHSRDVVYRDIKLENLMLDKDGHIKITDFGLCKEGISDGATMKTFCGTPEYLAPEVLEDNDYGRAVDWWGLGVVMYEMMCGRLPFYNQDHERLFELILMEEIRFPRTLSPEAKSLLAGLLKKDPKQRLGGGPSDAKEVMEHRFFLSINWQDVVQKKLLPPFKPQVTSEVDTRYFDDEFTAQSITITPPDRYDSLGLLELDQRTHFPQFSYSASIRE

| IC50 (AKT2) | IC50 (PKAα) | IC50 [1] | Compound |
| --- | --- | --- | --- |
| 0.266 µM | 0.02 µM | 13.5 µM | NC[C@H](Cc1ccccc1)NC(=O)C1=Cc2c[nH]c3nccc(c23)CC1 [Cpd. 1, N-[(1S)-2-amino-1-benzylethyl]-6,7-dihydro-2H-2,3-diazabenzo[cd]azulene-8-carboxamide] |
| 1.99 µM | 0.075 µM |  | CC(=O)N1CC(C(=O)N[C@H](CN)Cc2ccccc2)=Cc2c[nH]c3nccc1c23 [Cpd. 3, 6-acetyl-N-[(1S)-2-amino-1-benzylethyl]-6,7-dihydro-2H-2,3,6-triazabenzo[cd]azulene-8-carboxamide] |
| 0.155 µM | 0.01 µM |  | NC[C@H](Cc1ccccc1)NC(=O)C1=Cc2c[nH]c3nccc(c23)NC1 [compound 2, N-[(1S)-2-amino-1-benzylethyl]-6,7-dihydro-2H-2,3,6-triazabenzo[cd]azulene-8-carboxamide] |
| 0.362 µM | 0.062 µM | 11.5 µM | O=C(N[C@H](CN1CCCC1)c1ccccc1)C1=Cc2c[nH]c3nccc(c23)CC1 [Cpd. 6, N-[(1S)-1-phenyl-2-pyrrolidin-1-ylethyl]-6,7-dihydro-2H-2,3-diazabenzo[cd]azulene-8-carboxamide] |
